According to the CheMixHub viscosity set:

Test: xn = mol fraction of the nth substance listed

C=C(C)[C@@H]1CC=C(C)CC1 + CC12CCC(CC1)C(C)(C)O2
viscosity [mPa·s], 101.33 kPa
Conditions | 298.15 K | 313.15 K
x1 = 0.0715 | 2.345 | 1.741
x1 = 0.1121 | 2.23 | 1.664
x1 = 0.2018 | 1.995 | 1.504
x1 = 0.327 | 1.704 | 1.305
x1 = 0.4614 | 1.439 | 1.123
x1 = 0.5584 | 1.279 | 1.011
x1 = 0.6401 | 1.162 | 0.929
x1 = 0.7336 | 1.05 | 0.851
x1 = 0.8226 | 0.963 | 0.785
x1 = 0.8648 | 0.928 | 0.759
x1 = 0.9499 | 0.872 | 0.716

CCCCCCO + CC#N
viscosity [mPa·s], 101 kPa
Conditions | 298.15 K | 303.15 K | 308.15 K
x2 = 0.1095 | 3.187 | 2.576 | 2.165
x2 = 0.2173 | 2.358 | 2.078 | 1.839
x2 = 0.2885 | 1.966 | 1.831 | 1.573
x2 = 0.3844 | 1.55 | 1.386 | 1.233
x2 = 0.5121 | 1.109 | 1.004 | 0.913
x2 = 0.627 | 0.84 | 0.766 | 0.704
x2 = 0.7147 | 0.676 | 0.611 | 0.57
x2 = 0.7903 | 0.545 | 0.513 | 0.483
x2 = 0.8533 | 0.47 | 0.445 | 0.419
x2 = 0.9086 | 0.415 | 0.395 | 0.376
x2 = 0.9558 | 0.377 | 0.36 | 0.343

O=C1CCCCC1 + CC(=O)N(C)C
viscosity [mPa·s], 101 kPa
Conditions | 298.15 K | 308.15 K | 318.15 K
x1 = 0.1 | 1.024 | 0.873 | 0.75
x1 = 0.2001 | 1.095 | 0.907 | 0.76
x1 = 0.3001 | 1.182 | 0.956 | 0.782
x1 = 0.4001 | 1.28 | 1.018 | 0.823
x1 = 0.45 | 1.334 | 1.058 | 0.849
x1 = 0.4999 | 1.391 | 1.099 | 0.882
x1 = 0.5501 | 1.454 | 1.147 | 0.922
x1 = 0.5991 | 1.518 | 1.196 | 0.962
x1 = 0.7015 | 1.66 | 1.322 | 1.071
x1 = 0.7499 | 1.731 | 1.387 | 1.134
x1 = 0.7984 | 1.805 | 1.454 | 1.199
x1 = 0.8997 | 1.969 | 1.615 | 1.348

CC(=O)CC(C)C + CC(=O)O
viscosity [mPa·s]
Conditions | 293.15 K | 298.15 K | 308.15 K | 318.15 K
101.32 kPa, x1 = 0.048 | 1.179 | 1.085 | 0.9387 | 0.82
101.32 kPa, x1 = 0.102 | – | – | – | 0.7844
101.32 kPa, x1 = 0.103 | 1.122 | 1.037 | 0.8955 | –
101.32 kPa, x1 = 0.164 | 1.065 | 0.9866 | 0.8505 | 0.7456
101.32 kPa, x1 = 0.233 | – | – | – | 0.708
101.32 kPa, x1 = 0.234 | 1.004 | 0.9325 | 0.803 | –
101.32 kPa, x1 = 0.313 | – | – | – | 0.6696
101.32 kPa, x1 = 0.314 | 0.9417 | 0.8743 | 0.7592 | –
101.32 kPa, x1 = 0.405 | – | – | – | 0.6271
101.32 kPa, x1 = 0.406 | 0.8773 | 0.8108 | 0.7072 | –
101.32 kPa, x1 = 0.514 | 0.8105 | 0.752 | 0.6636 | 0.5844
101.32 kPa, x1 = 0.646 | – | – | – | 0.5401
101.32 kPa, x1 = 0.647 | 0.7427 | 0.688 | 0.6078 | –
101.32 kPa, x1 = 0.805 | – | 0.6272 | 0.5546 | 0.4944
101.32 kPa, x1 = 0.806 | 0.6691 | – | – | –
101.33 kPa, x1 = 0.048 | 1.179 | 1.085 | 0.9387 | 0.82
101.33 kPa, x1 = 0.102 | – | – | – | 0.7844
101.33 kPa, x1 = 0.103 | 1.122 | 1.037 | 0.8955 | –
101.33 kPa, x1 = 0.164 | 1.065 | 0.9866 | 0.8505 | 0.7456
101.33 kPa, x1 = 0.233 | – | – | – | 0.708
101.33 kPa, x1 = 0.234 | 1.004 | 0.9325 | 0.803 | –
101.33 kPa, x1 = 0.313 | – | – | – | 0.6696
101.33 kPa, x1 = 0.314 | 0.9417 | 0.8743 | 0.7592 | –
101.33 kPa, x1 = 0.405 | – | – | – | 0.6271
101.33 kPa, x1 = 0.406 | 0.8773 | 0.8108 | 0.7072 | –
101.33 kPa, x1 = 0.514 | 0.8105 | 0.752 | 0.6636 | 0.5844
101.33 kPa, x1 = 0.646 | – | – | – | 0.5401
101.33 kPa, x1 = 0.647 | 0.7427 | 0.688 | 0.6078 | –
101.33 kPa, x1 = 0.805 | – | 0.6272 | 0.5546 | 0.4944
101.33 kPa, x1 = 0.806 | 0.6691 | – | – | –

CCOCC + CC(=O)O
viscosity [mPa·s], 101 kPa
Conditions | x2 = 0.124 | x2 = 0.2575 | x2 = 0.5649 | x2 = 0.6393 | x2 = 0.749 | x2 = 0.9116
293.15 K | 0.3184 | 0.3737 | 0.5451 | 0.6641 | – | 1.048
303.15 K | 0.2837 | 0.3354 | 0.483 | 0.5903 | 0.7376 | 0.8999
313.15 K | – | 0.3088 | – | 0.5215 | 0.6621 | 0.791
323.15 K | – | – | 0.3937 | 0.4665 | 0.5877 | 0.6835

CC(=O)CC(C)C + CC(C)=O
298.15 K, 101 kPa
Conditions | viscosity [mPa·s]
x2 = 0.0872 | 0.5206
x2 = 0.2689 | 0.474
x2 = 0.3526 | 0.4524
x2 = 0.359 | 0.45
x2 = 0.5077 | 0.4139
x2 = 0.7067 | 0.366
x2 = 0.7731 | 0.3515
x2 = 0.8344 | 0.3373
x2 = 0.835 | 0.3362
x2 = 0.9323 | 0.3141
